In patent US20230248833A1, “COMPOUND HAVING BTK KINASE DEGRADING ACTIVITY, AND PREPARATION METHOD AND PHARMACEUTICAL USE THEREFOR” (SICHUAN HAISCO PHARMACEUTICAL CO., LTD., priority 2020, published 2023):

Key:
SU-DHL-6 cells = test: Inhibition of cell proliferation, SU-DHL-6 cells (Cell Viability Assay, 72 h); type: cell-based, human; details: Homo sapiens, SU-DHL-6, 72 h
Method: (§1) SU-DHL-4, Mino, and SU-DHL-6 cells, in the culture medium of RPMI1640+10% FBS, were cultured in an incubator at 37° C. under 5% CO2. Cells were plated in a 96-well plate. Specifically, SU-DHL-4 cells were at 20000/well, Mino and SU-DHL-6 cells were at 5000/well, with 90 μL/well. 10 μL of the compounds at different concentrations were added to each well. There were 3 replicate wells for each concentration, and the last column, added with DMSO, was used as a vehicle control group. The cultures were continued for 72 hours at 37° C. under 5% CO2. After 72 hours, 100 μL of detection reagent (Cell Viability Assay, Promega, G7573) was added to each well, and the cultures were uniformly mixed for 2 minutes, and incubated at room temperature for 10 minutes. The […] signal value was measured with a microplate reader (PHERAstar FSX). The IC50 value of the compound on cell proliferation inhibition was calculated using origin9.2 software, and the inhibition rate at the highest concentration of the compound (Max inhi.%) was calculated according to formula (1).
(§2) Max inhi.%=(1−T72administration/T72vehicle)×100 Formula (1).

[1] = Pharmacokinetic experiment in rats; type: in vivo; details: male, SD, rat, po, plasma; for AUC(0-t): single dose
Method: Experimental objective: In this experiment, a single dose of each test compound was administered to SD rats intravenously and intragastrically, the concentrations of the test compound in plasma of rats were measured, and the pharmacokinetic characteristics and bioavailability of the test compound in rats were evaluated.
Experimental animals: Male SD rats, about 200 g, 6-8 weeks old, 6 rats/compound. Rats were purchased from Hunan SJA Laboratory Animal Co., Ltd, with the laboratory animal production license number of SCXK (Xiang) 2019-004.
Experimental method: On the day of the experiment, 6 SD rats were randomly grouped according to their body weight. The animals were fasted with water available for 12 to 14 hours one day before the administration of a test compound, and were fed 4 hours after the administration.
Before and after the administration, […] of blood was taken from the orbit of the rats under isoflurane anesthesia, and placed in an EDTAK2 centrifuge tube. Centrifugation was carried out at 5000 rpm at 4° C. for 10 min, and the plasma was collected.
Time points for sample collection in G1&G2 groups comprise
Before analysis and detection, all samples were stored at −80° C. The samples were detected by HPLC-MS/MS.

Mino cells = test: Inhibition of cell proliferation, Mino cells (Cell Viability Assay, 72 h); type: cell-based, human; details: Homo sapiens, MINO, 72 h
Method: as §1, §2

[2] = target: T1, hERG potassium ion channel (Homo sapiens, UniProt Q12809); test: Effect on hERG potassium ion channel, manual patch-clamp in CHO cells; type: cell-based; details: CHO cells stably expressing hERG, whole cell patch-clamp, room temperature; read-out: IC50 value of inhibitory effect on hERG potassium channel current
T1 construct: expressed in transfected cells
T1 sequence (Q12809 whole entry): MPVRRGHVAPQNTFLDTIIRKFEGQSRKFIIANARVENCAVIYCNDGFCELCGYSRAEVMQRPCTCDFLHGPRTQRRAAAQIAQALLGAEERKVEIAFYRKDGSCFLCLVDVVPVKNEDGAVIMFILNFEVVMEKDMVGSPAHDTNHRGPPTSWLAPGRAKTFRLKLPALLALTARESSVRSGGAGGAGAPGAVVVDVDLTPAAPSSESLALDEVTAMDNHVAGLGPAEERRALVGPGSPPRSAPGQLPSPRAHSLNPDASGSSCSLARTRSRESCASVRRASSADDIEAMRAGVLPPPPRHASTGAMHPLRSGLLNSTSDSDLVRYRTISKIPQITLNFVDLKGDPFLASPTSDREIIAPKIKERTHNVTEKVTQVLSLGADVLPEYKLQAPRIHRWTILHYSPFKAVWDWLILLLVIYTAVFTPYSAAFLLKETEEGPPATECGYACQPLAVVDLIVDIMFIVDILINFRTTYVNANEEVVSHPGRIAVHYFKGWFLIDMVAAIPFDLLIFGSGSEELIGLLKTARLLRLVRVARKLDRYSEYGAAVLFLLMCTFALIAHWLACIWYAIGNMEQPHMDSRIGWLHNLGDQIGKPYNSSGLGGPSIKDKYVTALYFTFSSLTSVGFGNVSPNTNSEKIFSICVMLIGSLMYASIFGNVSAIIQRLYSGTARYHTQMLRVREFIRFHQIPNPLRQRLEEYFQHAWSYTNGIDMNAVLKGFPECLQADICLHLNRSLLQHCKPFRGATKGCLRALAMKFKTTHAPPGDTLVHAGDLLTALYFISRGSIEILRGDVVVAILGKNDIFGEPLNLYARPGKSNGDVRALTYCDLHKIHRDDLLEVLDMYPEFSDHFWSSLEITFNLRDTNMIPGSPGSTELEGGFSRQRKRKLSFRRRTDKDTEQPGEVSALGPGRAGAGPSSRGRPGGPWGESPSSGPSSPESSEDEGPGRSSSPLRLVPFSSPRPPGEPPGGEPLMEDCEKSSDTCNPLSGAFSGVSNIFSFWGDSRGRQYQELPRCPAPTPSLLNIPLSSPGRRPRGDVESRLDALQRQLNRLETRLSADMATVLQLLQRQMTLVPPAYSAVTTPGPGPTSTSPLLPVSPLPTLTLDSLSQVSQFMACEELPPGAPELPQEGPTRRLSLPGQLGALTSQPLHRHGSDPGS
Text: Experimental platform: electrophysiological manual patch-clamp system
Cell line: Chinese hamster ovary (CHO) cells stably expressing hERG potassium ion channel
Experimental method: In CHO (Chinese Hamster Ovary) cells stably expressing hERG potassium channel, whole cell patch-clamp technique was used to recorded hERG potassium channel current at room temperature. The glass microelectrode is made of a glass electrode blank (BF150-86-10, Sutter) by a puller. The tip resistance after filling the liquid in the electrode is about 2-5 MQ. The glass microelectrode can be connected to the patch-clamp amplifier by inserting the glass microelectrode into an amplifier probe. The clamping voltage and data recording are controlled and recorded by the pClamp 10 software through a computer. The sampling frequency is 10 kHz, and the filtering frequency is 2 kHz. […]
Data analysis processing was carried out by using pClamp 10, GraphPad Prism 5 and Excel software. The inhibition degree of hERG potassium current (peak value of hERG tail current induced at −50 mV) at different compound concentrations was calculated by the following formula: […]
Compound IC50 was calculated using GraphPad Prism 5 software by fitting according to the following equation: […]

| Structure (SMILES) | IC50 (SU-DHL-6 cells) | AUC(0-t) ([1]; i.g. (20 mg/kg)) | bioavailability ([1]; i.g. (20 mg/kg), bioavailability) | AUC(0-t) ([1]; i.g. (5 mg/kg)) | IC50 (Mino cells) | IC50 [2] |
| --- | --- | --- | --- | --- | --- | --- |
| Nc1ncnc2c1c(-c1ccc(Oc3ccccc3)cc1)nn2C1CCN(C2CN(CC3CN(c4cc5c(cc4F)C(=O)N(C4CCC(=O)NC4=O)C5=O)C3)C2)CC1 (centres unmarked) [Compound 106, 5-(3-((3-(4-(4-amino-3-(4-phenoxyphenyl)-1H-pyrazolo[3,4-d]pyrimidin-1-yl)piperidin-1-yl)azetidin-1-yl)methyl)azetidin-1-yl)-2-(2,6-dioxopiperidin-3-yl)-6-fluoroisoindoline-1,3-dione] | 95 nM | 3210 ± 728 ng·h/mL | 14.4 ± 3.3% |  | 119 nM |  |
| Nc1ncnc2c1c(-c1ccc(Oc3ccccc3)cc1)nn2[C@H]1CCN(C2CN(CC3(F)CN(c4cc5c(cc4F)C(=O)N(C4CCC(=O)NC4=O)C5=O)C3)C2)C[C@H]1F (stereo partly drawn) [Compound 113, 5-(3-((3-((3R,4S)-4-(4-amino-3-(4-phenoxyphenyl)-1H-pyrazolo[3,4-d]pyrimidin-1-yl)-3-fluoropiperidin-1-yl)azetidin-1-yl)methyl)-3-fluoroazetidin-1-yl)-2-(2,6-dioxopiperidin-3-yl)-6-fluoroisoindoline-1,3-dione] | 100 nM | 3820 ± 811 ng·h/mL |  |  | 61 nM | > 40000 nM |
| Nc1ncnc2c1c(-c1ccc(Oc3ccccc3)cc1)nn2C1CCN(C2CN(CC3(F)CN(c4ccc5c(c4)C(=O)N(C4CCC(=O)NC4=O)C5=O)C3)C2)CC1 (centres unmarked) [Compound 116, 5-(3-((3-(4-(4-amino-3-(4-phenoxyphenyl)-1H-pyrazolo[3,4-d]pyrimidin-1-yl)piperidin-1-yl)azetidin-1-yl)methyl)-3-fluoroazetidin-1-yl)-2-(2,6-dioxopiperidin-3-yl)isoindoline-1,3-dione] | 52 nM | 4440 ± 544 ng·h/mL |  |  | 29 nM |  |
| Nc1ncnc2c1c(-c1ccc(Oc3ccccc3)cc1)nn2C1CCN(C2CN(CC3(F)CCN(c4cc5c(cc4F)C(=O)N(C4CCC(=O)NC4=O)C5=O)CC3)C2)CC1 (centres unmarked) [Compound 117, 5-(4-((3-(4-(4-amino-3-(4-phenoxyphenyl)-1H-pyrazolo[3,4-d]pyrimidin-1-yl)piperidin-1-yl)azetidin-1-yl)methyl)-4-fluoropiperidin-1-yl)-2-(2,6-dioxopiperidin-3-yl)-6-fluoroisoindoline-1,3-dione] | 98 nM | 2280 ± 64 ng·h/mL |  |  | 119 nM |  |
| Nc1ncnc2c1c(-c1ccc(Oc3ccccc3)cc1)nn2C1CCN(C2CN(CC3(F)CCN(c4ccc5c(c4)C(=O)N(C4CCC(=O)NC4=O)C5=O)CC3)C2)CC1 (centres unmarked) [Compound 118, 5-(4-((3-(4-(4-amino-3-(4-phenoxyphenyl)-1H-pyrazolo[3,4-d]pyrimidin-1-yl)piperidin-1-yl)azetidin-1-yl)methyl)-4-fluoropiperidin-1-yl)-2-(2,6-dioxopiperidin-3-yl)isoindoline-1,3-dione] | 50 nM | 2080 ± 985 ng·h/mL |  |  | 52 nM |  |

Now those with a lower IC50 (SU-DHL-6 cells), led by results:

| IC50 (SU-DHL-6 cells) | AUC(0-t) ([1]; i.g. (20 mg/kg)) | bioavailability ([1]; i.g. (20 mg/kg), bioavailability) | AUC(0-t) ([1]; i.g. (5 mg/kg)) | Structure (SMILES) | IC50 (Mino cells) | IC50 [2] |
| --- | --- | --- | --- | --- | --- | --- |
| 23 nM | 1320 ± 653 ng·h/mL |  |  | Nc1ncnc2c1c(-c1ccc(Oc3ccccc3)cc1)nn2[C@H]1CCN(C2CN(CC3CN(c4ccc5c(c4)C(=O)N(C4CCC(=O)NC4=O)C5=O)C3)C2)C[C@H]1F (stereo partly drawn) [Compound 104, 5-(3-((3-((3R,4S)-4-(4-amino-3-(4-phenoxyphenyl)-1H-pyrazolo[3,4-d]pyrimidin-1-yl)-3-fluoropiperidin-1-yl)azetidin-1-yl)methyl)azetidin-1-yl)-2-(2,6-dioxopiperidin-3-yl)isoindoline-1,3-dione] | 16 nM |  |
| 31 nM | 614 ± 125 ng·h/mL |  |  | Nc1ncnc2c1c(-c1ccc(Oc3ccccc3)cc1)nn2[C@@H]1CCN(C2CN(CC3CN(c4ccc5c(c4)C(=O)N(C4CCC(=O)NC4=O)C5=O)C3)C2)C[C@@H]1F (stereo partly drawn) [Compound 110, 5-(3-((3-((3S,4R)-4-(4-amino-3-(4-phenoxyphenyl)-1H-pyrazolo[3,4-d]pyrimidin-1-yl)-3-fluoropiperidin-1-yl)azetidin-1-yl)methyl)azetidin-1-yl)-2-(2,6-dioxopiperidin-3-yl)isoindoline-1,3-dione] | 35 nM |  |
| 23 nM | 753 ± 261 ng·h/mL |  |  | Nc1ncnc2c1c(-c1ccc(Oc3ccccc3)cc1)nn2[C@@H]1CCN(C2CN(CC3CN(c4ccc5c(c4)C(=O)N(C4CCC(=O)NC4=O)C5=O)C3)C2)C[C@H]1F (stereo partly drawn) [Compound 111, 5-(3-((3-((3R,4R)-4-(4-amino-3-(4-phenoxyphenyl)-1H-pyrazolo[3,4-d]pyrimidin-1-yl)-3-fluoropiperidin-1-yl)azetidin-1-yl)methyl)azetidin-1-yl)-2-(2,6-dioxopiperidin-3-yl)isoindoline-1,3-dione] | 50 nM |  |
| 36 nM | 1780 ± 663 ng·h/mL |  |  | Nc1ncnc2c1c(-c1ccc(Oc3ccccc3)cc1)nn2[C@H]1CCN(C2CN(CC3CN(c4ccc5c(c4)C(=O)N(C4CCC(=O)NC4=O)C5=O)C3)C2)C[C@@H]1F (stereo partly drawn) [Compound 112, 5-(3-((3-((3S,4S)-4-(4-amino-3-(4-phenoxyphenyl)-1H-pyrazolo[3,4-d]pyrimidin-1-yl)-3-fluoropiperidin-1-yl)azetidin-1-yl)methyl)azetidin-1-yl)-2-(2,6-dioxopiperidin-3-yl)isoindoline-1,3-dione] | 39 nM |  |
| 24 nM | 2670 ± 738 ng·h/mL |  |  | Nc1ncnc2c1c(-c1ccc(Oc3ccccc3)cc1)nn2[C@H]1CCN(C2CN(CC3CN(c4cc5c(cc4F)C(=O)N(C4CCC(=O)NC4=O)C5=O)C3)C2)C[C@H]1F (stereo partly drawn) [Compound 114, 5-(3-((3-((3R,4S)-4-(4-amino-3-(4-phenoxyphenyl)-1H-pyrazolo[3,4-d]pyrimidin-1-yl)-3-fluoropiperidin-1-yl)azetidin-1-yl)methyl)azetidin-1-yl)-2-(2,6-dioxopiperidin-3-yl)-6-fluoroisoindoline-1,3-dione] | 66 nM |  |
| 12 nM | 347 ± 55 ng·h/mL |  |  | Nc1ncnc2c1c(-c1ccc(Oc3ccccc3)cc1)nn2C1CCN(C2CN(CC3CCN(c4ccc5c(c4)C(=O)N(C4CCC(=O)NC4=O)C5=O)CC3)C2)CC1 (centres unmarked) [Trifluoroacetate of compound 98, 5-(4-((3-(4-(4-amino-3-(4-phenoxyphenyl)-1H-pyrazolo[3,4-d]pyrimidin-1-yl)piperidin-1-yl)azetidin-1-yl)methyl)piperidin-1-yl)-2-(2,6-dioxopiperidin-3-yl)isoindoline-1,3-dione] | 20 nM |  |
| 24 nM |  |  | 504 ± 131 ng·h/mL | Nc1ncnc2c1c(-c1ccc(Oc3ccccc3)cc1)nn2C1CCN(C2CN(CC3CCN(c4ccc5c(c4)C(=O)N(C4CCC(=O)NC4=O)C5=O)C3)C2)CC1 (centres unmarked) [Trifluoroacetate of compound 99, 5-(3-((3-(4-(4-amino-3-(4-phenoxyphenyl)-1H-pyrazolo[3,4-d]pyrimidin-1-yl)piperidin-1-yl)azetidin-1-yl)methyl)pyrrolidine-1-yl)-2-(2,6-dioxopiperidin-3-yl)isoindoline-1,3-dione] | 21 nM |  |
